Results reported in US20250360108A1, “CATALYTIC INHIBITOR OF PROTEIN PHOSPHATASE 5 ACTIVATES THE EXTRINSIC APOPTOTIC PATHWAY BY DISRUPTING COMPLEX II” (The Research Foundation for the State University of New York, priority 2022, published 2025).

Assays:
[1] = tested on: PP5; assay: PP5 inhibition in cells by immunoblotting of PP5 substrates phospho-S211-GR and phospho-S13-Cdc37; type: cell-based, human; settings: 786-O cells, indicated amounts, 24 hrs
Protocol: Protein Extraction, Immunoprecipitation and Immunoblotting: Protein extraction from mammalian cells was carried out using methods previously described. Cell lysates were quantified using 1× Bradford reagent (Biorad). For immunoprecipitation, cell lysates were incubated with anti-FLAG antibody conjugated beads (Sigma) or anti-HA conjugated beads (ThermoFisher Scientific) at 4° C. for 2 hrs. Endogenous IPs were achieved by incubating lysate with anti-PP5 antibody (Cell Signaling), anti-FADD antibody (Cell Signaling), or anti-RIPK1 antibody (Cell Signaling) overnight followed by protein G agarose (Invitrogen) at 4° C. for 2 hrs. Immunopellets were washed 4 times with fresh lysis buffer (20 mM Tris-HCl (pH 7.4), 100 mM NaCl, 1 mM MgCl2, 0.1% NP40, protease inhibitor cocktail (Roche), and PhosSTOP (Roche)) and eluted in 5× Laemmli buffer. Precipitated proteins were separated by SDS-PAGE and transferred to nitrocellulose membranes. Co-immunoprecipitated proteins or proteins from cell lysate were detected with antibodies recognizing FLAG, 6×-His (ThermoFisher Scientific), GAPDH (ENZO Life Sciences), Cdc37 (StressMarq), GR, phospho-GR (S211), PP5, caspase-3, cleaved caspase-3, caspase-8, cleaved caspase-8, cleaved caspase-7, cleaved-PARP, phospho-RIPK1 (S166), phospho-FADD (S194), PP2A-C, VHL (Cell Signaling), phospho-RIPK1 (S161) (Invitrogen), PP5 and phospho-Cdc37 (S13) (Abcam). […]

[2] = biological target: T1, recombinant PP5-His6 (Homo sapiens, UniProt P53041); assay: PP5 Phosphatase Activity and Inhibition Assay (PiPer phosphate release, phospho-S211-GR peptide); type: biochemical; settings: phospho-S211-GR peptide substrate; for Ki: IC50 converted to Ki
T1 construct: GST (N, cleaved yes); made in house
T1 sequence (P53041 1-499): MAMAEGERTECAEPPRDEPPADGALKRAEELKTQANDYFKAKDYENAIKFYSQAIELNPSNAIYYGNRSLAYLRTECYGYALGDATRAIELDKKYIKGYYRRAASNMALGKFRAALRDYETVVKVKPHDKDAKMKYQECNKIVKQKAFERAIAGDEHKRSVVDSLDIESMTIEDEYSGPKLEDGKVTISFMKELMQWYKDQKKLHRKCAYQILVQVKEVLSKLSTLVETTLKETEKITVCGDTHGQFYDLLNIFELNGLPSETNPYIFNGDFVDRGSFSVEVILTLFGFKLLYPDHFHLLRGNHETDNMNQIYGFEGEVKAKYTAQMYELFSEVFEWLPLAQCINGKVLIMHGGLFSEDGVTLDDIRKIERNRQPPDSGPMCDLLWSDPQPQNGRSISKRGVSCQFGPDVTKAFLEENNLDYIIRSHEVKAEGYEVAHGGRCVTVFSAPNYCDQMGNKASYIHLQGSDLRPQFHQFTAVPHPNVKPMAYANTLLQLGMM
Protocol: PP5 inhibitors specifically bind to the phosphatase-catalytic domain: We next sought to measure the inhibition of PP5 activity in vitro with P5 and P13.
Bacterial Expression and Protein Purification of PP5: Human PPP5c was cloned into pGEX6P1 with an N-terminal GST tag and C-terminal His6 tag. Transformed cells were grown at 37° C. in LB with 100 mg/L ampicillin until OD600=0.6 and induced with 1 mM IPTG. Cells were harvested by centrifugation and lysed by sonication in lysis buffer (50 mM Hepes (pH 8.0), 150 mM NaCl, 0.5 mM TCEP and EDTA-free protease inhibitor cocktail tablet (Roche)). Lysate was incubated with talon resin (Takara Bio) for 1 hr at 4° C. The resin was washed three times with lysis buffer and PP5 was eluted with lysis buffer containing 250 mM imidazole. Precision protease was added to the elution overnight to cleave the GST tag and the sample was then mixed with Glutathione Sepharose resin (Cytiva) to remove the free GST and un-cleaved protein. The sample was applied to a Superdex S75 16/60 size exclusion column (GE Healthcare) and eluted in 100 mM NaCl, 20 mM Hepes pH 8, 02 mM TCEP.
PP5 Phosphatase Activity and Inhibition Assay: The phosphatase activity of the recombinant PP5-His6 was measured using the PiPer™ Phosphate Assay Kit (Thermo Fisher Scientific) as described in the manufacturer's protocol. Standard curve with linear fit line was created from 0-1 nM Pifinal concentration reactions. 1 nM of PP5-His6 was added to each reaction with indicated amounts of custom synthesized substrate phospho-S211-glucocorticoid receptor (PhosS211-GR) peptide (see Key Resources Table) as specific substrate (Thermo Fisher Scientific). Reactions were run in triplicate and incubated at 37° C. for over 10 min. […] Enzyme kinetics were calculated and plotted using Lineweaver Burk plot and web-based tool (https://www.aatbio.com/tools/ic50-calculator) for calculating IC50 and (https://bioinfo-abcc.ncifcrf.gov/IC50_Ki_Converter/index.php) for converting IC50 to Ki values for inhibitors of enzyme activity and ligand binding.

[3] = tested on: 786-O cells; assay: Cell viability / proliferation MTT assay; type: cell-based, human; settings: varying doses, 48 hrs
Protocol: Cell Viability Assay: Renal cancer cell lines 786-O, Caki-2, Caki-1, and A498 as well as the normal renal cell line HK-2 were plated at 10,000 cells per well in 96-well plates. […] After 24 or 48 hrs, cell viability assay was performed using the Quick Cell Proliferation Kit Plus (BioVision) according to the manufacturer's protocol. The absorbance at 450 nm was measured on a Tecan Infinite M200 Pro and proliferation rate was calculated.

[4] = tested on: 786-O cells; assay: Induction of apoptosis by immunoblotting of apoptotic markers; type: cell-based, human; settings: 10 μM, 24 hrs
Protocol: Method Details Cell Transfection and Treatment: Cultured cells were split and then transfected the following day when about 40% confluent with each construct using Mirus TranslT-2020 (MirusBio) according to manufacturer's protocol. Cells were incubated at 37° C. and then extracted or collected for analysis after 24 hrs (HEK293) or 72 hrs (ccRCC cell lines). Short interfering RNA (siRNA) scramble control and PPP5C (PP5) targeting duplexes were purchased from OriGene (SKU: SR321403A, SR321403B, and SR321403C). Indicated cells were transiently transfected with the siRNA using Mirus TranslT-2020. For PP5 knock-down, either 30 nM of control siRNA or 10 nM of each PP5 siRNA duplex (A, B and C) were mixed prior to transfection. Cells were incubated at 37° C. for 72 hrs, then harvested for protein extraction. […] Cells were then harvested for protein extraction.
Protein Extraction, Immunoprecipitation and Immunoblotting: Protein extraction from mammalian cells was carried out using methods previously described. Cell lysates were quantified using 1× Bradford reagent (Biorad). For immunoprecipitation, cell lysates were incubated with anti-FLAG antibody conjugated beads (Sigma) or anti-HA conjugated beads (ThermoFisher Scientific) at 4° C. for 2 hrs. Endogenous IPs were achieved by incubating lysate with anti-PP5 antibody (Cell Signaling), anti-FADD antibody (Cell Signaling), or anti-RIPK1 antibody (Cell Signaling) overnight followed by protein G agarose (Invitrogen) at 4° C. for 2 hrs. Immunopellets were washed 4 times with fresh lysis buffer (20 mM Tris-HCl (pH 7.4), 100 mM NaCl, 1 mM MgCl2, 0.1% NP40, protease inhibitor cocktail (Roche), and PhosSTOP (Roche)) and eluted in 5× Laemmli buffer. Precipitated proteins were separated by SDS-PAGE and transferred to nitrocellulose membranes. Co-immunoprecipitated proteins or proteins from cell lysate were detected with antibodies recognizing FLAG, 6×-His (ThermoFisher Scientific), GAPDH (ENZO Life Sciences), Cdc37 (StressMarq), GR, phospho-GR (S211), PP5, caspase-3, cleaved caspase-3, caspase-8, cleaved caspase-8, cleaved caspase-7, cleaved-PARP, phospho-RIPK1 (S166), phospho-FADD (S194), PP2A-C, VHL (Cell Signaling), phospho-RIPK1 (S161) (Invitrogen), PP5 and phospho-Cdc37 (S13) (Abcam). Secondary antibodies raised against mouse and rabbit (Cell Signaling) were used (See Key Resources Table).

[5] = biological target: T1, recombinant PP5-His6; assay: P13-BODIPY binding to PP5 by fluorescence anisotropy; settings: measured with 10 nM BODIPY-labeled P13, one-site fit; read-out: binding affinity to PP5
Protocol: We next synthesized BODIPY-labelled version of compound P13 (P13-BODIPY) in order to obtain the binding affinity of this inhibitor to PP5 in vitro (FIG. S3A). This was accomplished by coupling the azidopropyl-P13 10 with 4,4-difluoro-5,7-dimethyl-4-bora-3a,4a-diaza-s-indacene-3-propionic acid (BODIPY Acid 13). Using fluorescence anisotropy with recombinant PP5 protein (FIG. S3B), we determined the binding affinity of P13 compound to PP5 to be 376.2±60 nM (FIG. 1H).
Binding Measurements and Anisotropy: Recombinant PP5-His6 at the indicated concentrations was incubated on ice in 100 mM NaCl, 20 mM HEPES pH 8.0, 1% glycerol, 0.2 mM tris(2-carboxyethyl)phosphine (TCEP) and 0.5 mM MnCl2 with 10 nM BODIPY-labeled P13 in 2% DMSO for 30 min in opaque black 96 well plates (Corning). Uncalibrated fluorescence anisotropy was then measured using a SpectraMax i3 equipped with fluorescein anisotropy module (Molecular Devices). Curves were fit to a one-site binding equation using GraphPad Prism version 9.5.0. y=y0+A*x/(Kd+x) where y is measured uncalibrated anisotropy, y0 is the y intercept, A is the amplitude of the curve, x is the concentration of PP5 used, and Kd is the measured dissociation constant. Data are presented as mean±SEM.

mode of PP5 inhibition (enzyme kinetics, Lineweaver-Burk) [2]	Ki [2]	SMILES	proliferation of 786-O cells (MTT) [3]	cleavage of apoptotic markers caspase 3 and 8 and PARP [4]	induction of apoptosis (cleaved PARP, cleaved caspase 8) [4]	other results
		Cc1noc(C)c1S(=O)(=O)Nc1ccc(O)c(C(=O)O)c1 [Compound P0]				phosphorylation of PP5 substrates phospho-S13-Cdc37 and phospho-S211-GR [1]: dose dependent increase in phosphorylation
competitive inhibitors	277 ± 50 nM	COC(=O)c1cccc(NS(=O)(=O)c2c(C)noc2C)c1 [Compound P5, Methyl m-(3,5-dimethyl-4-isoxazolylsulfonylamino)benzoate]	significantly inhibited the proliferation	cleavage of the apoptotic markers caspase 3 and 8 and PARP		
competitive inhibitors	234 ± 50 nM	Cc1ccc(NS(=O)(=O)c2c(C)noc2C)cc1C [Compound P13, (3,5-Dimethyl-4-isoxazolylsulfonyl)(3,4-xylyl)amine]	significantly inhibited the proliferation	cleavage of the apoptotic markers caspase 3 and 8 and PARP		Kd [5]: 376 ± 60 nM
		CCCCN(c1ccc(Oc2ccccc2)cc1)S(=O)(=O)c1c(C)noc1C [Compound P058, N-Butyl(3,5-dimethyl-4-isoxazolylsulfonyl)(p-phenoxyphenyl)amine]			had the ability to induce apoptosis	
		Cc1noc(C)c1S(=O)(=O)N(CCCCl)c1ccc(Oc2ccccc2)cc1 [Compound P059, (3-Chloropropyl)(3,5-dimethyl-4-isoxazolylsulfonyl)(p-phenoxyphenyl)amine]			had the ability to induce apoptosis	
